Assay [1] concerns the target T1, TALK-2 L264A mutant channels (Homo sapiens, UniProt Q96T54, L264A).
T1 sequence (Q96T54 1-332 L264A): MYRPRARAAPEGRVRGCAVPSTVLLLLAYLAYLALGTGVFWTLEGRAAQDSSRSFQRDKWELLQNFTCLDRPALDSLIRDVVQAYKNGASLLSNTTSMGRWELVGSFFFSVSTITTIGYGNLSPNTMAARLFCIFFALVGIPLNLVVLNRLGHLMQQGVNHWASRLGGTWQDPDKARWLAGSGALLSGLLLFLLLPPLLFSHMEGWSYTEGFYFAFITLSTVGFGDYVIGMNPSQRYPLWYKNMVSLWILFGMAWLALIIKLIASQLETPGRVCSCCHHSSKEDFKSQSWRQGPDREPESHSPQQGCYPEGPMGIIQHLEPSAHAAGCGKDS
Description: Oocytes were surgically removed from anesthetized adult females, treated with type II collagenase (Sigma-Aldrich/Merck, Germany) and manually defolliculated. 50 nl of a solution containing the K^+ channel specific cRNA was injected into Dumont stage V - VI oocytes and subsequently incubated at 17 °C in a solution containing (mM): 54 NaCl, 30 KCl, 2.4 NaHCO3, 0.82 MgSO4 x 7 H2O, 0.41 CaCl2, 0.33 Ca(NO3)2 x 4 H2O and 7.5 TRIS (pH 7.4 adjusted with NaOH/HCl) for 1–7 days before use. Electrophysiological recordings: Excised patch measurements in inside-out configuration under voltage-clamp conditions were performed at room temperature (22 – 24 °C). […] Currents were recorded with an EPC10 amplifier (HEKA electronics, Germany) and sampled at 10 kHz or higher and filtered with 3 kHz (-3 dB) or higher as appropriate for sampling rate.
Recorded currents were analyzed from stable membrane patches at a voltage defined in the respective figure legend or with a voltage protocol as indicated in the respective figure. The fold activation (fold change in (tail) current amplitude) of a ligand (drug or bioactive lipid) was calculated from Eq. 1:1 Fold activationFA=Iactivated/Ibasal where Iactivated represents the stable current level in the presence of a given concentration of a respective ligand and Ibasal the measured current before ligand application. […]

The target in assay [2] is T2, WT TALK-2 channels (Homo sapiens, UniProt Q96T54).
T2 sequence (Q96T54 1-332): T1 sequence (Q96T54 1-332 L264A) with A264L
Particulars: TALK-2 WT.
Description: (§1) Data shown are the mean ± s.e.m and the number (n) of repeats of the representative measurements with similar results is indicated in the figure.
(§2) Oocytes were surgically removed from anesthetized adult females, treated with type II collagenase (Sigma-Aldrich/Merck, Germany) and manually defolliculated. 50 nl of a solution containing the K^+ channel specific cRNA was injected into Dumont stage V - VI oocytes and subsequently incubated at 17 °C in a solution containing (mM): 54 NaCl, 30 KCl, 2.4 NaHCO3, 0.82 MgSO4 x 7 H2O, 0.41 CaCl2, 0.33 Ca(NO3)2 x 4 H2O and 7.5 TRIS (pH 7.4 adjusted with NaOH/HCl) for 1–7 days before use. Electrophysiological recordings: Excised patch measurements in inside-out configuration under voltage-clamp conditions were performed at room temperature (22 – 24 °C). Patch pipettes were made from thick-walled borosilicate glass GB 200TF-8P (Science Products, Germany), had resistances of 0.2–0.5 MΩ (tip diameter of 10 - 25 µm) and filled with a pipette solution (in mM): 120 KCl, 10 HEPES and 3.6 CaCl2 (pH 7.0 - 8.5 adjusted with KOH/HCl) or 120 KCl, 10 AMPSO and 3.6 CaCl2 (pH 9.0 - 10.5 adjusted with KOH/HCl). Intracellular bath solutions and compounds were applied to the cytoplasmic side of excised patches for the various K^+ channels via a gravity flow multi-barrel pipette system. Intracellular solution had the following composition (in mM): 120 KCl, 10 HEPES, 2 EGTA and 1 Pyrophosphate (pH adjusted with KOH/HCl). In other intracellular bath solutions, K^+ was replaced by Rb^+ (pH 7.4 adjusted with RbOH/HCl). Currents were recorded with an EPC10 amplifier (HEKA electronics, Germany) and sampled at 10 kHz or higher and filtered with 3 kHz (-3 dB) or higher as appropriate for sampling rate.

For assay [3], the target named is WT TREK-1 channels (Rattus norvegicus, UniProt Q920B6). Particulars: TREK-1 WT.
WT TREK-1 channels, sequence (Q920B6 whole entry): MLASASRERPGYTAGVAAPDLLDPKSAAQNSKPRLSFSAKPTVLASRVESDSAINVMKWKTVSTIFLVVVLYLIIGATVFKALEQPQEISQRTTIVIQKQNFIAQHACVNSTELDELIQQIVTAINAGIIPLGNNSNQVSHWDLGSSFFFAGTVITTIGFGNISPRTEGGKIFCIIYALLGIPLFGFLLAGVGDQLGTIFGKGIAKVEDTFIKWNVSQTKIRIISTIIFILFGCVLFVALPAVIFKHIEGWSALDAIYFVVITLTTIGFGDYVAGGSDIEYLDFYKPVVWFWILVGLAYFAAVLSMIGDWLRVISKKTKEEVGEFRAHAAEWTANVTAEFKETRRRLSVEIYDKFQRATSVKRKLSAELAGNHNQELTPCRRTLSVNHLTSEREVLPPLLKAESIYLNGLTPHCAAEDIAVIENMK
Description: as §1, §2
Assay [4] addresses T1, TALK-2 L264A mutant channels. Put plainly: Conductance-voltage (G-V) curves from tail currents, V1/2 (intracellular Rb+). It counts as cell-based. Also noted: expressed in transfected cells; host or cells: Xenopus laevis oocytes (cRNA injection), excised inside-out patches. Particulars: for Normalized current: TALK-2 L264A + 1 mM TPenA. The source says: The voltage-dependent activation mechanism of the SF gate in K2P channels allows to estimate the electrical work (ΔG = zFΔV1/2) required for pore opening by fitting the G–V curve to a Boltzmann equation. […] The open state represents the situation of both gates being simultaneously open but voltage can only exert force on the SF gate that functions as voltage sensor. […] We further tested whether mutations that open the lower gate (L262A and L264A) would affect the extracellular pH sensitivity. […] We further explored this concept of allosteric coupling using the mutations identified in the functional alanine screen of TM2 and TM4.
Dashed lines in e, f represent the level of WT (unstimulated) V1/2 at pHe 7.4. g Normalized currents from TEVC measurements of oocytes expressing WT (n = 11) and mutant L262A (n = 5) or L264A TALK-2 channels (n = 8), respectively. Channels were activated by increasing pHe from 5.5 to 10.5 with 0.5 pH increments. Currents were elucidated with a voltage protocol ramped from −120 mV to +45 mV within 3.5 s, analyzed at +40 mV and normalized to pH 10.5. Data shown are the mean ± s.e.m and the number (n) of independent experiments is indicated in the figure and supplementary tables 3 and 4.
Conductance-voltage (G–V) relationships were determined from tail currents recorded at a holding potential (VH) of −80 mV after 300 ms depolarizing steps as indicated in the respective figure legend. Data were analyzed with a single Boltzmann fit following Eq. 6:6 GV=Imax/1+e^V−V1/2/slope+Ibase where V1/2 represents the voltage of half-maximal activation, s is the slope factor and Imax and Ibase represent the upper and lower asymptotes. Under appropriate experimental conditions, you can use slope to calculate the valence (charge) of the ion moving across the channel. Slope equals R * T/ z * F where R is the universal gas constant, T is temperature in K, F is the Faraday constant, and z is the valence.

The target in assay [5] is T3, WT TALK-2 channels (human K2P17.1) (Homo sapiens, UniProt Q96T54).
T3 sequence (Q96T54 1-332): T1 sequence (Q96T54 1-332 L264A) with A264L
Also noted: expressed in transfected cells; host or cells: Xenopus laevis oocytes (cRNA injection), excised inside-out patches; method as in PMID 34928298. The note with it: cited from earlier work.

SMILES strings stand for the structures. Numbering of substitutions follows the chain as printed. Like-named read-outs stand apart in the source and are kept apart here.

With `NCCOB(c1ccccc1)c1ccccc1` [2-APB, 2-aminoethoxydiphenyl borate], the “Fold activation 1 mM 2-APB” value in assay [1] (1 mM) came to 2.78 fold. Further, the “further current increase by 2-APB” value in assay [1] (1.0 mM 2-APB) is on record as “only a minor further current increase”. Besides, the “Rb+-induced current” value in assay [2] (0.001 mM 2-APB) is reported as 0.79 nA; in assay [2] (0.01 mM 2-APB) it was 0.98 nA; in assay [2] (0.1 mM 2-APB), 2.85 nA; in assay [2] (0.5 mM 2-APB), 8.79 nA; in assay [2] (1.0 mM 2-APB), 11.82 nA; in assay [2] (2.0 mM 2-APB), 15.32 nA. Also, the “Rb+-induced current” value in assay [3] (0.001 mM 2-APB) is 2.62 nA; in assay [3] (0.01 mM 2-APB) it was 2.54 nA; in assay [3] (0.1 mM 2-APB), 1.29 nA; in assay [3] (0.5 mM 2-APB), -0.03 nA; in assay [3] (1.0 mM 2-APB), -0.44 nA; in assay [3] (2.0 mM 2-APB) it was 0.00 nA.

As to `CCCCC[N+](CCCCC)(CCCCC)CCCCC` [TPenA, Tetra-pentyl-ammonium chloride], the Normalized current is recorded as 0.564 in assay [4] (Voltage 0.000); 0.623 in assay [4] (Voltage 0.005); 0.674 in assay [4] (Voltage 0.010); 0.740 in assay [4] (Voltage 0.015); 0.788 in assay [4] (Voltage 0.020); 0.840 in assay [4] (Voltage 0.025). In addition, the Normalized current in assay [4] (Voltage 0.030) is reported as 0.884; in assay [4] (Voltage 0.035), 0.911; in assay [4] (Voltage 0.040) it was 0.934; in assay [4] (Voltage 0.045), 0.947; in assay [4] (Voltage 0.050), 0.961; in assay [4] (Voltage 0.055), 0.969. Also, the Normalized current in assay [4] (Voltage 0.060) is given as 0.977; in assay [4] (Voltage 0.065) it was 0.978; in assay [4] (Voltage 0.070), 0.978; in assay [4] (Voltage 0.075), 0.974; in assay [4] (Voltage 0.080), 0.988; in assay [4] (Voltage 0.085), 0.976. The Normalized current in assay [4] (Voltage 0.090) is given as 0.979; in assay [4] (Voltage 0.095) it was 0.980; in assay [4] (Voltage 0.100), 0.977; in assay [4] (Voltage 0.105), 0.982; in assay [4] (Voltage 0.110) it was 0.987; in assay [4] (Voltage 0.115), 0.981. In addition, the Normalized current in assay [4] (Voltage -0.005) is reported as 0.522; in assay [4] (Voltage -0.010), 0.490; in assay [4] (Voltage -0.015) it was 0.463; in assay [4] (Voltage -0.020), 0.444; in assay [4] (Voltage -0.025), 0.430; in assay [4] (Voltage -0.030), 0.417. Besides, the Normalized current in assay [4] (Voltage -0.035) is recorded as 0.405; in assay [4] (Voltage -0.040) it was 0.395; in assay [4] (Voltage -0.045) it was 0.384; in assay [4] (Voltage -0.050) it was 0.375; in assay [4] (Voltage -0.055), 0.367; in assay [4] (Voltage -0.060), 0.359. Besides, the Normalized current in assay [4] (Voltage -0.065) is 0.351; in assay [4] (Voltage -0.070) it was 0.345; in assay [4] (Voltage -0.075), 0.337; in assay [4] (Voltage -0.080) it was 0.333; in assay [4] (Voltage -0.085), 0.330; in assay [4] (Voltage -0.090), 0.331. Also, in assay [4] (Voltage -0.095), the Normalized current was determined as 0.326. The “effect of TPenA on the G-V curve” value in assay [4] (TALK-2 L264A, intracellular Rb+) is reported as “no marked effect”.

`CCCCCCCC/C=C\CCCCCCCC(=O)SCCNC(=O)CCNC(=O)[C@H](O)C(C)(C)COP(=O)(O)OP(=O)(O)OC[C@H]1O[C@@H](n2cnc3c(N)ncnc32)[C@H](O)[C@@H]1OP(=O)(O)O` [oleoyl-CoA]: in assay [5], the “increase of channel activity” value is reported as “more than 100 fold”.

The values above are taken from paper PMC11364775, “Ion occupancy of the selectivity filter controls opening of a cytoplasmic gate in the K2P channel TALK-2” (Nature Communications, 2024).
